Reference: PubChem BioAssay (NCI)
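Step 1: Grow cells in 96-well plates. Step 2: Expose to compound for 48 hours at 5 concentrations. Step 3: Interpolate endpoints linearly; if unreached, use highest concentration. GI50 = concentration required for 50% inhibition of growth. TGI denotes the concentration required for complete inhibition of growth.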

Legend:
Assay in all cases: DTP human tumour cell line panel, 48 h
HCC-2998 colon = test system: HCC-2998 colon
SF-268 CNS = test system: SF-268 CNS
K-562 leukemia = test system: K-562 leukemia
A549 NSCLC = test system: A549 NSCLC
HT29 colon = test system: HT29 colon
NCI-H226 lung = test system: NCI-H226 lung
SF-295 CNS = test system: SF-295 CNS
DLD-1 colon = test system: DLD-1 colon
KM20L2 colon = test system: KM20L2 colon
U251 CNS = test system: U251 CNS
LXFL 529 NSCLC = test system: LXFL 529 NSCLC
XF 498 CNS = test system: XF 498 CNS
LOX IMVI melanoma = test system: LOX IMVI melanoma
DMS 114 small cell lung = test system: DMS 114 small cell lung
HOP-18 NSCLC = test system: HOP-18 NSCLC
KM12 colon = test system: KM12 colon
OVCAR-5 ovarian = test system: OVCAR-5 ovarian
HL-60(TB) leukemia = test system: HL-60(TB) leukemia
RXF 393 renal = test system: RXF 393 renal
M14 melanoma = test system: M14 melanoma
UO-31 renal = test system: UO-31 renal
NCI-H23 lung = test system: NCI-H23 lung
MOLT-4 leukemia = test system: MOLT-4 leukemia
SK-OV-3 ovarian = test system: SK-OV-3 ovarian
HCT-15 colon = test system: HCT-15 colon
HOP-62 NSCLC = test system: HOP-62 NSCLC
HCT-116 colon = test system: HCT-116 colon
SR leukemia = test system: SR leukemia
SNB-75 CNS = test system: SNB-75 CNS
MALME-3M melanoma = test system: MALME-3M melanoma
SK-MEL-2 melanoma = test system: SK-MEL-2 melanoma
HOP-92 NSCLC = test system: HOP-92 NSCLC
786-0 renal = test system: 786-0 renal
CAKI-1 renal = test system: CAKI-1 renal
RPMI-8226 leukemia = test system: RPMI-8226 leukemia
ACHN renal = test system: ACHN renal
CCRF-CEM leukemia = test system: CCRF-CEM leukemia
SK-MEL-28 melanoma = test system: SK-MEL-28 melanoma
SF-539 CNS = test system: SF-539 CNS
EKVX NSCLC = test system: EKVX NSCLC
OVCAR-8 ovarian = test system: OVCAR-8 ovarian
SNB-19 CNS = test system: SNB-19 CNS
NCI-H460 lung = test system: NCI-H460 lung
UACC-62 melanoma = test system: UACC-62 melanoma
COLO 205 colon = test system: COLO 205 colon
IGROV1 ovarian = test system: IGROV1 ovarian
NCI-H522 lung = test system: NCI-H522 lung
UACC-257 melanoma = test system: UACC-257 melanoma
SW-620 colon = test system: SW-620 colon
OVCAR-4 ovarian = test system: OVCAR-4 ovarian
A498 renal = test system: A498 renal
SK-MEL-5 melanoma = test system: SK-MEL-5 melanoma
TK-10 renal = test system: TK-10 renal
OVCAR-3 ovarian = test system: OVCAR-3 ovarian
SN12C renal = test system: SN12C renal

In the case of `CC(=O)[CH-]C(C)=O.CC(=O)[CH-]C(C)=O.[CH2-]CCCCCCC.[CH2-]CCCCCCC.[Sn+4]`, the GI50 (HCC-2998 colon) is reported as 17 µM, the TGI (HCC-2998 colon) is reported as 31.5 µM and the GI50 (SF-268 CNS) is reported as 18.9 µM. For the same compound, the TGI (SF-268 CNS) was 57.9 µM, the GI50 (K-562 leukemia) was 20.5 µM and the TGI (K-562 leukemia) was 93.5 µM. It also gave a GI50 (A549 NSCLC) of 45.6 µM, a TGI (A549 NSCLC) of over 100 µM and a GI50 (HT29 colon) of 23.5 µM. It also gave a TGI (HT29 colon) of 59.6 µM, a GI50 (NCI-H226 lung) of 26.2 µM and a TGI (NCI-H226 lung) of 52.3 µM. The GI50 (SF-295 CNS) was 15.4 µM, the TGI (SF-295 CNS) was 30.6 µM and the GI50 (DLD-1 colon) was 18.8 µM. The TGI (DLD-1 colon) was 45.2 µM, the GI50 (KM20L2 colon) was 25 µM and the TGI (KM20L2 colon) was 57.6 µM. For the same compound, the GI50 (U251 CNS) was 15 µM, the TGI (U251 CNS) was 28.3 µM and the GI50 (LXFL 529 NSCLC) was 16.2 µM. It also gave a TGI (LXFL 529 NSCLC) of 30.1 µM, a GI50 (XF 498 CNS) of 11.8 µM and a TGI (XF 498 CNS) of 24.1 µM. For the same compound, the GI50 (LOX IMVI melanoma) was 13.8 µM, the TGI (LOX IMVI melanoma) was 27 µM and the GI50 (DMS 114 small cell lung) was 16.7 µM. It also gave a TGI (DMS 114 small cell lung) of 31.2 µM, a GI50 (HOP-18 NSCLC) of over 100 µM and a TGI (HOP-18 NSCLC) of over 100 µM. It also gave a GI50 (KM12 colon) of 16.7 µM, a TGI (KM12 colon) of 34.4 µM and a GI50 (OVCAR-5 ovarian) of 15.5 µM. It also gave a TGI (OVCAR-5 ovarian) of 37.7 µM, a GI50 (HL-60(TB) leukemia) of 21.1 µM and a TGI (HL-60(TB) leukemia) of 81.6 µM. The GI50 (RXF 393 renal) was 14.6 µM, the TGI (RXF 393 renal) was 32.9 µM and the GI50 (M14 melanoma) was 18.5 µM. It also gave a TGI (M14 melanoma) of 35.5 µM, a GI50 (UO-31 renal) of 17.2 µM and a TGI (UO-31 renal) of 34.8 µM. The GI50 (NCI-H23 lung) was 18.7 µM, the TGI (NCI-H23 lung) was 33.6 µM and the GI50 (MOLT-4 leukemia) was 37.2 µM. It also gave a TGI (MOLT-4 leukemia) of 73 µM, a GI50 (SK-OV-3 ovarian) of 25.5 µM and a TGI (SK-OV-3 ovarian) of 67.1 µM. It also gave a GI50 (HCT-15 colon) of 23.2 µM, a TGI (HCT-15 colon) of 56.2 µM and a GI50 (HOP-62 NSCLC) of 22.4 µM. It also gave a TGI (HOP-62 NSCLC) of 40.9 µM, a GI50 (HCT-116 colon) of 14.8 µM and a TGI (HCT-116 colon) of 29.1 µM. The GI50 (SR leukemia) was 39.9 µM, the TGI (SR leukemia) was 62.4 µM and the GI50 (SNB-75 CNS) was 14.7 µM. For the same compound, the TGI (SNB-75 CNS) was 78.6 µM, the GI50 (MALME-3M melanoma) was 17.6 µM and the TGI (MALME-3M melanoma) was 39.5 µM. It also gave a GI50 (SK-MEL-2 melanoma) of 14.8 µM, a TGI (SK-MEL-2 melanoma) of 32 µM and a GI50 (HOP-92 NSCLC) of 18.1 µM. The TGI (HOP-92 NSCLC) was 40.7 µM, the GI50 (786-0 renal) was 15.8 µM and the TGI (786-0 renal) was 30.1 µM. It also gave a GI50 (CAKI-1 renal) of 36.7 µM, a TGI (CAKI-1 renal) of over 100 µM and a GI50 (RPMI-8226 leukemia) of 18.5 µM. For the same compound, the TGI (RPMI-8226 leukemia) was 40.4 µM, the GI50 (ACHN renal) was 28.3 µM and the TGI (ACHN renal) was 70.4 µM. The GI50 (CCRF-CEM leukemia) was 27 µM, the TGI (CCRF-CEM leukemia) was 69 µM and the GI50 (SK-MEL-28 melanoma) was 14.7 µM. For the same compound, the TGI (SK-MEL-28 melanoma) was 28.4 µM, the GI50 (SF-539 CNS) was 22.2 µM and the TGI (SF-539 CNS) was 58.6 µM. The GI50 (EKVX NSCLC) was 14.7 µM, the TGI (EKVX NSCLC) was 35.4 µM and the GI50 (OVCAR-8 ovarian) was 16.8 µM. The TGI (OVCAR-8 ovarian) was 32.1 µM, the GI50 (SNB-19 CNS) was 17.5 µM and the TGI (SNB-19 CNS) was 35.8 µM. For the same compound, the GI50 (NCI-H460 lung) was 17.3 µM, the TGI (NCI-H460 lung) was 37.8 µM and the GI50 (UACC-62 melanoma) was 15.6 µM. It also gave a TGI (UACC-62 melanoma) of 29.4 µM, a GI50 (COLO 205 colon) of 14.7 µM and a TGI (COLO 205 colon) of 28.8 µM. For the same compound, the GI50 (IGROV1 ovarian) was 20.3 µM, the TGI (IGROV1 ovarian) was 49.2 µM and the GI50 (NCI-H522 lung) was 20.3 µM. For the same compound, the TGI (NCI-H522 lung) was 46.2 µM, the GI50 (UACC-257 melanoma) was 17.8 µM and the TGI (UACC-257 melanoma) was 34.9 µM. It also gave a GI50 (SW-620 colon) of 16.4 µM, a TGI (SW-620 colon) of 31.7 µM and a GI50 (OVCAR-4 ovarian) of 22.3 µM. For the same compound, the TGI (OVCAR-4 ovarian) was 78.6 µM, the GI50 (A498 renal) was 23 µM and the TGI (A498 renal) was 46.7 µM. For the same compound, the GI50 (SK-MEL-5 melanoma) was 17.7 µM, the TGI (SK-MEL-5 melanoma) was 32 µM and the GI50 (TK-10 renal) was 23.7 µM. For the same compound, the TGI (TK-10 renal) was 45.2 µM, the GI50 (OVCAR-3 ovarian) was 15.9 µM and the TGI (OVCAR-3 ovarian) was 33.8 µM. For the same compound, the GI50 (SN12C renal) was 22.7 µM and the TGI (SN12C renal) was 59.1 µM.
